{"source": "patent US9359409B2", "about": "“Antimicrobial peptides, compositions comprising the same and uses thereof” (priority 2012, dated 2016)", "tested_on": "Staphylococcus aureus", "test": "MIC by broth microdilution", "format": "cell-based", "summary_of_the_method": "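Broth microdilution per CLSI M07-A9 in cation-supplemented Mueller-Hinton broth (Ca++ 20-25 mg/L, Mg++ 10-12.5 mg/L). Peptides tested in two-fold dilutions from 0.5 to 512 μg/mL. Inoculum was a 1/100 dilution of a 0.5 McFarland suspension.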", "note": "Ends that are not written are not given here.", "data": [{"substance": "ILRWPWWPWRRK-NH2 [Omiganan, ILRWPWWPWRRK, reference compound]", "values": [{"measurement": "MIC", "setting": "S. aureus 28, resistance gene ermA", "value": 32, "unit": "µg/mL"}, {"measurement": "MIC", "setting": "S. aureus 33, resistance gene msrA", "value": 32, "unit": "µg/mL"}, {"measurement": "MIC", "setting": "S. aureus 204, resistance gene ermA", "value": 64, "unit": "µg/mL"}, {"measurement": "MIC", "setting": "S. aureus 239, resistance gene ermC", "value": 32, "unit": "µg/mL"}, {"measurement": "MIC", "setting": "S. aureus M2832, resistance gene mecA", "value": 64, "unit": "µg/mL"}, {"measurement": "MIC", "setting": "S. aureus M4046, resistance gene mecA", "value": 32, "unit": "µg/mL"}, {"measurement": "MIC", "setting": "S. aureus M6276, resistance gene ermA + lnuA", "value": 32, "unit": "µg/mL"}, {"measurement": "MIC", "setting": "S. aureus M6784, resistance gene mecA", "value": 32, "unit": "µg/mL"}, {"measurement": "MIC", "setting": "S. aureus M6820, resistance gene mecA", "value": 128, "unit": "µg/mL"}]}]}
